Measured values: US20060009512A1, “5-ht 1b/1d receptor agonists for the treatment of headache resulting from administering an endothelin receptor antagonist” (priority 2002, published 2006)
Entries after “also recorded” stand apart in the source; their conditions may differ.

Legend:
[1] = cancer patients, doses of 20 mg and above; cited from earlier work
[2] = man, recommended dose of 125-250 mg bid; cited from earlier work
[3] = Clinical study of safety and tolerability of multiple doses of ZD4054 in healthy young volunteers; assay type: in vivo, man
Description: (§1) A study was undertaken to assess the safety and tolerability of multiple doses of ZD4054 in healthy young volunteers at dose levels of 100 mg, 50 mg and 25 mg daily.
(§2) At the 100 mg dose level 16 volunteers participated (12 active and 4 placebo). They received a 100 mg ZD4054 or placebo single dose and one week later commenced daily dosing. Dosing was stopped within 3-5 days of continuous dosing in the majority of ZD4054 treated subjects due to headache. Of the 12 subjects receiving ZD4054, 10 were additionally given zolmitriptan (2.5 mg tablets) at some stage (in addition to paracetamol and in some cases ibuprofen).
(§3) Note: all subjects received paracetamol (1 g every 4 hours for the first 16 hours post the first dose of ZD4054) on the first day of multiple dosing. Analgesics were given as required.

[4] = Treatment of ZD4054 induced headache in subjects of the clinical study (zolmitriptan, standard analgesics); assay type: in vivo, man; conditions: for effect of standard analgesic therapy on ZD4054 induced headaches: subjects with ZD4054 induced headache
Description: Based on citations by Carducci (Carducci, 2002) a number of “standard analgesic therapies” were tried, including paracetamol, ibuprofen and codeine to treat the ZD4054 induced headaches.
as §1, §2, §3
An explanation of CTC grades which stands for Common Toxicity Criteria, can be found in a document from the National Institute of Health, Version 2.0, DCTD, NCI, NIH, DHHS March 1998.

CCCCN(CCCC)C(=O)CN1C[C@H](c2ccc3c(c2)OCO3)[C@@H](C(=O)O)[C@@H]1c1ccc(OC)cc1 [Atrasentan]
incidence of headache [1]: 50-100%

COc1ccccc1Oc1c(NS(=O)(=O)c2ccc(C(C)(C)C)cc2)nc(-c2ncccn2)nc1OCCO [Bosentan]
subjects with induced headaches [2]: 22%

COc1nc(C)cnc1NS(=O)(=O)c1cccnc1-c1ccc(-c2nnco2)cc1 [ZD4054, N-(3-methoxy-5-methylpyrazin-2-yl)-2-(4-[1,3,4-oxadiazol-2-yl]phenyl)pyridine-3-sulphonamide]
time of continuous dosing until dosing was stopped due to headache ([3]; 100 mg daily, majority of ZD4054 treated subjects): 3 to 5 days | induction of headache in man ([3]; clinical testing in man): induces headaches in man

COc1ccc2c3c1O[C@H]1[C@@H](O)C=C[C@H]4[C@@H](C2)N(C)CC[C@@]341 [codeine]
effect of standard analgesic therapy on ZD4054 induced headaches [4]: several subjects still reported persistent headache

CC(C)Cc1ccc(C(C)C(=O)O)cc1 (centres unmarked) [ibuprofen]
effect of standard analgesic therapy on ZD4054 induced headaches [4]: several subjects still reported persistent headache

CC(=O)Nc1ccc(O)cc1 [paracetamol]
improvement of headache ([4]; Subject 7, CTC grade 2 headache, second day of multiple dosing): little improvement | headache grade despite treatment ([4]; Subject 10, second day, increased from CTC grade 1): 3 CTC grade | effect of standard analgesic therapy on ZD4054 induced headaches [4]: several subjects still reported persistent headache

CN(C)CCc1c[nH]c2ccc(C[C@H]3COC(=O)N3)cc12 [zolmitriptan]
headache grade after treatment ([4]; Subject 7, from CTC grade 2 on second day of multiple dosing, 2.5 mg plus 2.5 mg 50 mins later, 1-1.5 hours later): 1 CTC grade | headache grade after treatment ([4]; Subject 10, day 3, from CTC grade 3, 2.5 mg plus 2.5 mg 50 mins later, 2.5 h later): 1 CTC grade | headache grade after treatment ([4]; Subject 10, second day, from CTC grade 3, 2.5 mg): 2 CTC grade | patients noting at least at one stage that their headache was alleviated ([4]; of 10 subjects given zolmitriptan 2.5 mg tablets, ZD4054 100 mg): Seven | effect on intensity/severity of ZD4054 induced headache ([4]; subjects in which standard analgesic therapy had failed, 2.5-5 mg orally): effective in reducing the intensity of ZD4054 induced headaches in some subjects; also recorded: effective in reducing the severity of headache
